pIC50: −log10 of the molar value. Values belong to the molecule of their own block, whether it stands above or below them.
How the values were obtained:
myeloperoxidase (MPO) [1] = target: T1, myeloperoxidase (MPO) (Homo sapiens (Human), UniProt P05164); assay: MPO peroxidation assay (Amplex Red assay); format: biochemical; conditions: potency range class
Outline: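 Human MPO at 200 pM with 40 nM H2O2 preincubated 10 min at room temperature with inhibitor in 100 mM KPi pH 7.4. Reaction started with Amplex Red mixture (200 μM Amplex Red, 10 mM H2O2); resorufin fluorescence (Ex 535, Em 590 nm) read kinetically for 15 min. IC50 fitted from slopes over 180-540 s.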

myeloperoxidase (MPO) [2] = target: T1, myeloperoxidase (MPO); assay: MPO chlorination assay (APF assay); format: biochemical; conditions: potency range class
Outline: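 Human MPO (200 pM) preincubated 10 min at room temperature with inhibitor and 120 mM NaCl in 100 mM KPi pH 7.4. Reaction started with APF plus 10 μM H2O2, and hypochlorite-generated fluorescein read kinetically (ex 485/em 535 nm) for 3 min. IC50 from linear-phase slopes fitted to a four-parameter equation.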

T1 sequence (P05164 49-745): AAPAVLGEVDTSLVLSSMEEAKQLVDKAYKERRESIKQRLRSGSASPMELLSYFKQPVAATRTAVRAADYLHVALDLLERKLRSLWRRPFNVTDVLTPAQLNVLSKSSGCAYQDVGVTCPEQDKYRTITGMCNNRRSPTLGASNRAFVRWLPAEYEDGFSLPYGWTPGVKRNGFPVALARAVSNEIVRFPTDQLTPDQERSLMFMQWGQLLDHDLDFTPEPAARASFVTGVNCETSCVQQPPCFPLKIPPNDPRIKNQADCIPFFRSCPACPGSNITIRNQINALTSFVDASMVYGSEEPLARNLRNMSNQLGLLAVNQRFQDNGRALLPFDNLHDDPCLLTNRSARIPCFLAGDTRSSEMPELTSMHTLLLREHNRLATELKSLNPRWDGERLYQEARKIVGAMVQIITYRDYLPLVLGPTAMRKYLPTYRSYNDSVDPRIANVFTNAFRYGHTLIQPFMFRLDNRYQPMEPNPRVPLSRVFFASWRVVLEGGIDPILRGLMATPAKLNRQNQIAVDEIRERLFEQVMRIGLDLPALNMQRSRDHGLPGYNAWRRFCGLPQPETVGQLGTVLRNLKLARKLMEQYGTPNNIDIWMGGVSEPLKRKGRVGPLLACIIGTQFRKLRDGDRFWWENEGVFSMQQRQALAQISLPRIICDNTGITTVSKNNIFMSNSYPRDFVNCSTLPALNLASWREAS

SMILES: Nc1cc(Cn2nnc3cccc(Cl)c32)c2nn[nH]c2n1 [Example 165, 7-[(7-Chloro-1H-1,2,3-benzotriazol-1-yl)methyl]-3H-[1,2,3]triazolo[4,5-b]pyridin-5-amine]
pIC50 (myeloperoxidase (MPO) [1]): 6.00 to 7.00 | pIC50 (myeloperoxidase (MPO) [2]): 6.00 to 7.00

SMILES: Nc1cc(Cn2nnc3c(Cl)cccc32)c2nn[nH]c2n1 [Example 166]
pIC50 (myeloperoxidase (MPO) [1]): 5.00 to 6.00 | pIC50 (myeloperoxidase (MPO) [2]): 5.00 to 6.00

SMILES: Nc1cc(Cn2nnc3ccc(Cl)cc32)c2nn[nH]c2n1 [Example 167, 7-[(6-Chloro-1H-1,2,3-benzotriazol-1-yl)methyl]-3H-[1,2,3]triazolo[4,5-b]pyridin-5-amine]
pIC50 (myeloperoxidase (MPO) [1]): 6.00 to 7.00 | pIC50 (myeloperoxidase (MPO) [2]): 6.00 to 7.00

SMILES: Nc1cc(Cn2nnc(-c3ccccc3)n2)c2nn[nH]c2n1 [Example 169, 7-[(5-Phenyl-2H-1,2,3,4-tetrazol-2-yl)methyl]-3H-[1,2,3]triazolo[4,5-b]pyridin-5-amine]
pIC50 (myeloperoxidase (MPO) [1]): 6.00 to 7.00 | pIC50 (myeloperoxidase (MPO) [2]): 6.00 to 7.00

SMILES: Nc1cc(Cn2nnc3ccc(Cc4ccccc4)cc32)c2nn[nH]c2n1 [Example 170, 7-[(6-Benzyl-1H-1,2,3-benzotriazol-1-yl)methyl]-3H-[1,2,3]triazolo[4,5-b]pyridin-5-amine]
pIC50 (myeloperoxidase (MPO) [1]): 6.00 to 7.00 | pIC50 (myeloperoxidase (MPO) [2]): 6.00 to 7.00

SMILES: Nc1cc(Cn2nnc3cc(Cc4ccccc4)ccc32)c2nn[nH]c2n1 [Example 171, 7-[(5-Benzyl-1H-1,2,3-benzotriazol-1-yl)methyl]-3H-[1,2,3]triazolo[4,5-b]pyridin-5-amine]
pIC50 (myeloperoxidase (MPO) [1]): 6.00 to 7.00 | pIC50 (myeloperoxidase (MPO) [2]): 6.00 to 7.00

SMILES: Nc1cc(Cc2cnn(Cc3cccc([C@@H]4CCNC4)c3)c2)c2nn[nH]c2n1 [Example 190]
pIC50 (myeloperoxidase (MPO) [1]): 7.00 to 9.00 | pIC50 (myeloperoxidase (MPO) [2]): 7.00 to 9.00

SMILES: Cc1ccc([C@H]2CNC(=O)C2)cc1Cn1cc(Cc2cc(N)nc3[nH]nnc23)cn1 [Example 192, (4S)-4-(3-{[4-({5-Amino-3H-[1,2,3]triazolo[4,5-b]pyridin-7-yl}methyl)-1H-pyrazol-1-yl]methyl}-4-methylphenyl)pyrrolidin-2-one]
pIC50 (myeloperoxidase (MPO) [1]): 6.00 to 7.00 | pIC50 (myeloperoxidase (MPO) [2]): 6.00 to 7.00

SMILES: Nc1cc(Cc2cnn(Cc3cc([C@@H]4CCNC4)ccc3C(F)(F)F)c2)c2nn[nH]c2n1 [Example 193, 7-{[1-({5-[(3S)-Pyrrolidin-3-yl]-2-(trifluoromethyl)phenyl}methyl)-1H-pyrazol-4-yl]methyl}-3H-[1,2,3]triazolo[4,5-b]pyridin-5-amine]
pIC50 (myeloperoxidase (MPO) [1]): 7.00 to 9.00 | pIC50 (myeloperoxidase (MPO) [2]): 6.00 to 7.00

SMILES: Cc1ccc([C@@H]2CCNC2)cc1Cn1cc(Cc2cc(N)nc3[nH]nnc23)cn1 [Example 194, 7-{[1-({2-Methyl-5-[(3S)-pyrrolidin-3-yl]phenyl}methyl)-1H-pyrazol-4-yl]methyl}-3H-[1,2,3]triazolo[4,5-b]pyridin-5-amine]
pIC50 (myeloperoxidase (MPO) [1]): 7.00 to 9.00 | pIC50 (myeloperoxidase (MPO) [2]): 5.00 to 6.00

SMILES: Nc1cc(Cc2cnn(Cc3cc(F)cc([C@@H]4CCNC4)c3)c2)c2nn[nH]c2n1 [Example 195, 7-{[1-({3-Fluoro-5-[(3S)-pyrrolidin-3-yl]phenyl}methyl)-1H-pyrazol-4-yl]methyl}-3H-[1,2,3]triazolo[4,5-b]pyridin-5-amine]
pIC50 (myeloperoxidase (MPO) [1]): 7.00 to 9.00 | pIC50 (myeloperoxidase (MPO) [2]): 7.00 to 9.00

SMILES: Nc1cc(Cc2cnn(Cc3cc(Cl)cc([C@@H]4CCNC4)c3)c2)c2nn[nH]c2n1 [Example 196, 7-{[1-({3-Chloro-5-[(3S)-pyrrolidin-3-yl]phenyl}methyl)-1H-pyrazol-4-yl]methyl}-3H-[1,2,3]triazolo[4,5-b]pyridin-5-amine]
pIC50 (myeloperoxidase (MPO) [1]): 7.00 to 9.00 | pIC50 (myeloperoxidase (MPO) [2]): 7.00 to 9.00

SMILES: COc1cc(Cn2cc(Cc3cc(N)nc4[nH]nnc34)cn2)cc([C@@H]2CCNC2)c1 [Example 197, 7-{[1-({3-Methoxy-5-[(3S)-pyrrolidin-3-yl]phenyl}methyl)-1H-pyrazol-4-yl]methyl}-3H-[1,2,3]triazolo[4,5-b]pyridin-5-amine]
pIC50 (myeloperoxidase (MPO) [1]): 7.00 to 9.00 | pIC50 (myeloperoxidase (MPO) [2]): 7.00 to 9.00

SMILES: Nc1cc(Cc2cnn(Cc3cc([C@@H]4CCNC4)ccc3Cl)c2)c2nn[nH]c2n1 [Example 198, 7-{[1-({2-Chloro-5-[(3 S)-pyrrolidin-3-yl]phenyl}methyl)-1H-pyrazol-4-yl]methyl}-3H-[1,2,3]triazolo[4,5-b]pyridin-5-amine]
pIC50 (myeloperoxidase (MPO) [1]): 7.00 to 9.00 | pIC50 (myeloperoxidase (MPO) [2]): 6.00 to 7.00

SMILES: Nc1cc(Cc2cnn(Cc3cc([C@@H]4CCNC4)cc(F)c3F)c2)c2nn[nH]c2n1 [Example 199, 7-{[1-({2,3-Difluoro-5-[(3S)-pyrrolidin-3-yl]phenyl}methyl)-1H-pyrazol-4-yl]methyl}-3H-[1,2,3]triazolo[4,5-b]pyridin-5-amine]
pIC50 (myeloperoxidase (MPO) [1]): 7.00 to 9.00 | pIC50 (myeloperoxidase (MPO) [2]): 7.00 to 9.00

Now from value to molecule:

pIC50 (myeloperoxidase (MPO) [1]): 7.00 to 9.00 | pIC50 (myeloperoxidase (MPO) [2]): 6.00 to 7.00
SMILES: Nc1cc(Cn2nnc3cc(Cl)ccc32)c2nn[nH]c2n1 [Example 168, 7-[(5-Chloro-1H-1,2,3-benzotriazol-1-yl)methyl]-3H-[1,2,3]triazolo[4,5-b]pyridin-5-amine]

pIC50 (myeloperoxidase (MPO) [1]): 7.00 to 9.00 | pIC50 (myeloperoxidase (MPO) [2]): 6.00 to 7.00
SMILES: COc1cc2ccc(Cn3cc(Cc4cc(N)nc5[nH]nnc45)cn3)cc2cn1 [Example 172, 7-((1-((3-Methoxyisoquinolin-7-yl)methyl)-1H-pyrazol-4-yl)methyl)-3H-[1,2,3]triazolo[4,5-b]pyridin-5-amine]

pIC50 (myeloperoxidase (MPO) [1]): 7.00 to 9.00 | pIC50 (myeloperoxidase (MPO) [2]): 6.00 to 7.00
SMILES: COc1cc2cc(Cn3cc(Cc4cc(N)nc5[nH]nnc45)cn3)ccc2cn1 [Example 173, 7-((1-((3-Methoxyisoquinolin-6-yl)methyl)-1H-pyrazol-4-yl)methyl)-3H-[1,2,3]triazolo[4,5-b]pyridin-5-amine]

pIC50 (myeloperoxidase (MPO) [1]): 7.00 to 9.00 | pIC50 (myeloperoxidase (MPO) [2]): 6.00 to 7.00
SMILES: COc1nccc2ccc(Cn3cc(Cc4cc(N)nc5[nH]nnc45)cn3)cc12 [Example 174, 7-((1-((1-Methoxyisoquinolin-7-yl)methyl)-1H-pyrazol-4-yl)methyl)-3H-[1,2,3]triazolo[4,5-b]pyridin-5-amine]

pIC50 (myeloperoxidase (MPO) [1]): 7.00 to 9.00 | pIC50 (myeloperoxidase (MPO) [2]): 6.00 to 7.00
SMILES: Nc1cc(Cc2cnn(Cc3ccc4cc[nH]c(=O)c4c3)c2)c2nn[nH]c2n1 [Example 175, 7-((4-((5-Amino-3H-[1,2,3]triazolo[4,5-b]pyridin-7-yl)methyl)-1H-pyrazol-1-yl)methyl)isoquinolin-1(2H)-one]

pIC50 (myeloperoxidase (MPO) [1]): 7.00 to 9.00 | pIC50 (myeloperoxidase (MPO) [2]): 7.00 to 9.00
SMILES: Nc1cc(Cc2cnn(Cc3ccc4c(c3)CNC4)c2)c2nn[nH]c2n1 [Example 176, 7-((1-(Isoindolin-5-ylmethyl)-1H-pyrazol-4-yl)methyl)-3H-[1,2,3]triazolo[4,5-b]pyridin-5-amine]

pIC50 (myeloperoxidase (MPO) [1]): 7.00 to 9.00 | pIC50 (myeloperoxidase (MPO) [2]): 6.00 to 7.00
SMILES: Nc1cc(Cc2cnn(Cc3cccc(-c4nccs4)c3)c2)c2nn[nH]c2n1 [Example 177, 7-((1-(3-(Thiazol-2-yl)benzyl)-1H-pyrazol-4-yl)methyl)-3H-[1,2,3]triazolo[4,5-b]pyridin-5-amine]

pIC50 (myeloperoxidase (MPO) [1]): 7.00 to 9.00 | pIC50 (myeloperoxidase (MPO) [2]): 6.00 to 7.00
SMILES: Nc1cc(Cc2cnn(Cc3cccc(-n4cncn4)c3)c2)c2nn[nH]c2n1 [Example 178, 7-((1-(3-(1H-1,2,4-Triazol-1-yl)benzyl)-1H-pyrazol-4-yl)methyl)-3H-[1,2,3]triazolo[4,5-b]pyridin-5-amine]

pIC50 (myeloperoxidase (MPO) [1]): 7.00 to 9.00 | pIC50 (myeloperoxidase (MPO) [2]): 6.00 to 7.00
SMILES: Cn1nnc2cc(Cn3cc(Cc4cc(N)nc5[nH]nnc45)cn3)ccc21 [Example 179, 7-({1-[(1-Methyl-1H-1,2,3-benzotriazol-5-yl)methyl]-1H-pyrazol-4-yl}methyl)-3H-[1,2,3]triazolo[4,5-b]pyridin-5-amine]

pIC50 (myeloperoxidase (MPO) [1]): 7.00 to 9.00 | pIC50 (myeloperoxidase (MPO) [2]): 6.00 to 7.00
SMILES: Nc1cc(Cc2cnn(Cc3ccc4ncsc4c3)c2)c2nn[nH]c2n1 [Example 180, 7-{[1-(1,3-Benzothiazol-6-ylmethyl)-1H-pyrazol-4-yl]methyl}-3H-[1,2,3]triazolo[4,5-b]pyridin-5-amine]

pIC50 (myeloperoxidase (MPO) [1]): 7.00 to 9.00 | pIC50 (myeloperoxidase (MPO) [2]): 7.00 to 9.00
SMILES: CC1NCCc2cc(Cn3cc(Cc4cc(N)nc5[nH]nnc45)cn3)ccc21 (stereo not shown) [Example 181, 7-({1-[(1-Methyl-1,2,3,4-tetrahydroisoquinolin-6-yl)methyl]-1H-pyrazol-4-yl}methyl)-3H-[1,2,3]triazolo[4,5-b]pyridin-5-amine]

pIC50 (myeloperoxidase (MPO) [1]): 7.00 to 9.00 | pIC50 (myeloperoxidase (MPO) [2]): 6.00 to 7.00
SMILES: Nc1cc(Cc2cnn(Cc3cccc(CN4CCNCC4)c3)c2)c2nn[nH]c2n1 [Example 182, 7-[(1-{[3-(Piperazin-1-ylmethyl)phenyl]methyl}-1H-pyrazol-4-yl)methyl]-3H-[1,2,3]triazolo[4,5-b]pyridin-5-amine]

pIC50 (myeloperoxidase (MPO) [1]): 7.00 to 9.00 | pIC50 (myeloperoxidase (MPO) [2]): 6.00 to 7.00
SMILES: Nc1cc(Cc2cnn(CCC3CCNCC3)c2)c2nn[nH]c2n1 [Example 183, 7-({1-[2-(Piperidin-4-yl)ethyl]-1H-pyrazol-4-yl}methyl)-3H-[1,2,3]triazolo[4,5-b]pyridin-5-amine]

pIC50 (myeloperoxidase (MPO) [1]): 7.00 to 9.00 | pIC50 (myeloperoxidase (MPO) [2]): 6.00 to 7.00
SMILES: Nc1cc(Cc2cnn(CC3CCN(Cc4ccccc4)C3)c2)c2nn[nH]c2n1 (stereo not shown) [Example 184, 7-({1-[(1-Benzylpyrrolidin-3-yl)methyl]-1H-pyrazol-4-yl}methyl)-3H-[1,2,3]triazolo[4,5-b]pyridin-5-amine]

pIC50 (myeloperoxidase (MPO) [1]): 7.00 to 9.00 | pIC50 (myeloperoxidase (MPO) [2]): 6.00 to 7.00
SMILES: CNc1nc2ccc(Cn3cc(Cc4cc(N)nc5[nH]nnc45)cn3)cc2s1 [Example 186, 6-{[4-({5-Amino-3H-[1,2,3]triazolo[4,5-b]pyridin-7-yl}methyl)-1H-pyrazol-1-yl]methyl}-N-methyl-1,3-benzothiazol-2-amine]

pIC50 (myeloperoxidase (MPO) [1]): 7.00 to 9.00 | pIC50 (myeloperoxidase (MPO) [2]): 6.00 to 7.00
SMILES: Nc1cc(Cc2cnn(Cc3cccc([C@H]4CNC(=O)C4)c3)c2)c2nn[nH]c2n1 [Example 188, (S)-4-(3-((4-((5-Amino-3H-[1,2,3]triazolo[4,5-b]pyridin-7-yl)methyl)-1H-pyrazol-1-yl)methyl)phenyl)pyrrolidin-2-one]

pIC50 (myeloperoxidase (MPO) [1]): 7.00 to 9.00 | pIC50 (myeloperoxidase (MPO) [2]): 6.00 to 7.00
SMILES: Nc1cc(Cc2cnn(Cc3cccc([C@@H]4CNC(=O)C4)c3)c2)c2nn[nH]c2n1 [Example 189, (R)-4-(3-((4-((5-Amino-3H-[1,2,3]triazolo[4,5-b]pyridin-7-yl)methyl)-1H-pyrazol-1-yl)methyl)phenyl)pyrrolidin-2-one]
